Source: patent publication US8927541B2, “Tricyclic antibiotics” (Basilea Pharmaceutica AG, priority 2009, dated 2015)

What follows are molecules tested on Staphylococcus aureus and/or Staphylococcus epidermidis and/or Streptococcus pneumoniae and/or Escherichia coli (assay: MIC, summary statement for staphylococci, pneumococci and E. coli). Conditions: 'generally'.
Type: cell-based
Method: (§1) The antibacterial activity of compounds is determined by the minimal inhibitory concentration (MIC) method. MICs for all bacteria except pneumococci and Haemophilus influenzae are obtained by broth microdilution with cation-adjusted Mueller-Hinton broth (CAMHB; BBL), according to CLSI guidelines (National Committee for Clinical Laboratory Standards. 2003. Methods for dilution antimicrobial susceptibility tests for bacteria that grow aerobically, 5th ed.; a approved standard M7-A6. National Committee for Clinical Laboratory Standards, Wayne, Pa.), with the following modifications: (i) for pneumococci CAMHB is supplemented with 5% (^v/v) horse serum; (ii) for Haemophilus influenzae CAMHB is supplemented with 5% (^v/v) Fildes enrichment (BBL) (Pankuch, G. A., Hoellman, D. B., Lin, G., Bajaksouzian, S., Jacobs, M. R., and Appelbaum, P. C. 1998. Activity of HMR 3647 compared to those of five agents against Haemophilus influenzae and Moraxella catarrhalis by MIC determination and time-kill assay. Antimicrob. Agents Chemother. 42:3032-3034). Microtiter plates are incubated at 35° C. in ambient air for 20 to 24 h, then inspected using an illuminated microtiter plate reader fitted with a magnifying mirror (MIC 2000; Cooke Laboratory Products, Alexandria, Va.). […]

MIC, ≤ 8 µg/mL:
COc1ccc2ncc3c(c2n1)NC([C@H]1CC[C@H](NC(=O)c2ccc4c(c2)NC(=O)CO4)CC1)CO3 (relative stereo) [Example 35, 3-oxo-3,4-dihydro-2H-benzo[1,4]oxazine-6-carboxylic acid [trans-4-(6-methoxy-3,4-dihydro-2H-1-oxa-4,5,9-triaza-phenanthren-3-yl)-cyclohexyl]-amide]
COc1ccc2ncc3c(c2n1)N(C)C(c1ccc(NC(=O)c2ccc4c(c2)NC(=O)CS4)cn1)CO3 (stereo not drawn) [Example 27, 3-oxo-3,4-dihydro-2H-benzo[1,4]thiazine-6-carboxylic acid [6-(6-methoxy-4-methyl-3,4-dihydro-2H-1-oxa-4,5,9-triaza-phenanthren-3-yl)-pyridin-3-yl]-amide]

What follows are molecules tested on Streptococcus pneumoniae ATCC49619 (assay: Antimicrobial activity assay, MIC by broth microdilution (CAMHB with 5% horse serum)). Conditions: 35° C., 20 to 24 h.
Type: cell-based
Method: (§2) The antibacterial activity of compounds is determined by the minimal inhibitory concentration (MIC) method. MICs for all bacteria except pneumococci and Haemophilus influenzae are obtained by broth microdilution with cation-adjusted Mueller-Hinton broth (CAMHB; BBL), according to CLSI guidelines (National Committee for Clinical Laboratory Standards. 2003. Methods for dilution antimicrobial susceptibility tests for bacteria that grow aerobically, 5th ed.; a approved standard M7-A6. National Committee for Clinical Laboratory Standards, Wayne, Pa.), with the following modifications: (i) for pneumococci CAMHB is supplemented with 5% (^v/v) horse serum; (ii) for Haemophilus influenzae CAMHB is supplemented with 5% (^v/v) Fildes enrichment (BBL) (Pankuch, G. A., Hoellman, D. B., Lin, G., Bajaksouzian, S., Jacobs, M. R., and Appelbaum, P. C. 1998. Activity of HMR 3647 compared to those of five agents against Haemophilus influenzae and Moraxella catarrhalis by MIC determination and time-kill assay. Antimicrob. Agents Chemother. 42:3032-3034). Microtiter plates are incubated at 35° C. in ambient air for 20 to 24 h, then inspected using an illuminated microtiter plate reader fitted with a magnifying mirror (MIC 2000; Cooke Laboratory Products, Alexandria, Va.). Compounds of the present invention are tested against several bacteria strains comprising some Acinetobacter baumannii, Enterococcus faecalis, Enterococcus faecium, Escherichia coli, Haemophilus influenzae, Klebsiella pneumoniae, Pseudomonas aeruginosa, Staphylococcus aureus, Staphylococcus epidermidis, Streptococcus pyogenes; Enterobacter aerogenes; Enterobacter cloacae and Streptococcus pneumoniae. All exemplified compounds have a MIC values for Staphylococcus aureus ATCC29213, Staphylococcus epidermidis ATCC14990 and Streptococcus pneumoniae ATCC49619 lower or equal to 8 mg/L except examples 25 and 56 for Staphylococcus epidermidis ATCC14990 and examples 20, 49, 51, 56, 58, 60, 66 and 76 for Streptococcus pneumoniae ATCC4961.

MIC, > 8 µg/mL:
COc1ccc2ncc3c(c2n1)CC([C@H]1CC[C@H](NC(=O)c2ccc4c(c2)NC(=O)CS4)CC1)CN3 (relative stereo) [Example 76, 3-oxo-3,4-dihydro-2H-benzo[1,4]thiazine-6-carboxylic acid [trans-4-(6-methoxy-1,2,3,4-tetrahydro-1,5,9-triaza-phenanthren-3-yl)-cyclohexyl]-amide]
COc1ccc2ncc3c(c2n1)OC([C@H]1CC[C@H](NC(=O)c2ccc4c(c2)NC(=O)CS4)CC1)CN3C (relative stereo) [Example 49, 3-oxo-3,4-dihydro-2H-benzo[1,4]thiazine-6-carboxylic acid [trans-4-(6-methoxy-1-methyl-2,3-dihydro-1H-4-oxa-1,5,9-triaza-phenanthren-3-yl)-cyclohexyl]-amide]
COc1ccc2ncc3c(c2c1)CC(n1cc(NCCSc2cccs2)cn1)CO3 (stereo not drawn) [Example 20, [1-(6-methoxy-3,4-dihydro-2H-1-oxa-9-aza-phenanthren-3-yl)-1H-pyrazol-4-yl]-[2-(thiophen-2-ylsulfanyl)-ethyl]-amine]

The molecules below were run on Staphylococcus aureus and/or Staphylococcus epidermidis and/or Streptococcus pneumoniae (assay: MIC, summary statement for staphylococci and pneumococci). Conditions: 'generally'.
Type: cell-based
Method: as §1

MIC, ≤ 8 µg/mL:
O=C1CSc2ccc(C(=O)N[C@H]3CC[C@H](C4COc5cnc6ccccc6c5C4)CC3)cc2N1 (relative stereo) [Example 50, 3-oxo-3,4-dihydro-2H-benzo[1,4]thiazine-6-carboxylic acid [trans-4-(3,4-dihydro-2H-1-oxa-9-aza-phenanthren-3-yl)-cyclohexyl]-amide]

The molecules below were run on Escherichia coli ATCC2592 (assay: Antimicrobial activity assay, MIC by broth microdilution). Conditions: 35° C., 20 to 24 h.
Type: cell-based
Method: as §2

MIC, ≤ 8 µg/mL:
COc1ccc2ncc3c(c2c1)CC(N1CCC(NC(=O)c2ccc4c(c2)NC(=O)CS4)CC1)CO3 (stereo not drawn) [Example 1, 3-oxo-3,4-dihydro-2H-benzo[1,4]thiazine-6-carboxylic acid [1-(6-methoxy-3,4-dihydro-2H-1-oxa-9-aza-phenanthrene-3-yl)-piperidin-4-yl]-amide]
COc1ccc2ncc3c(c2c1)CC(N1CCC(NCc2ccc4c(c2)NC(=O)CS4)CC1)CO3 (stereo not drawn) [Example 2, 6-{[1-(6-methoxy-3,4-dihydro-2H-1-oxa-9-aza-phenanthrene-3-yl)-piperidin-4-ylamino]-methyl}-4H-benzo[1,4]thiazine-3-one]
COc1ccc2ncc3c(c2c1)CC(N1CCC(NCc2ccc4c(c2)NC(=O)CO4)CC1)CS3 (stereo not drawn) [Example 3, 6-{[1-(6-methoxy-3,4-dihydro-2H-1-thia-9-aza-phenanthrene-3-yl)-piperidin-4-ylamino]-methyl}-4H-benzo[1,4]oxazin-3-one]
COc1ccc2ncc3c(c2n1)NC([C@H]1CC[C@H](NC(=O)c2ccc4c(c2)NC(=O)CO4)CC1)CO3 (relative stereo) [Example 35, 3-oxo-3,4-dihydro-2H-benzo[1,4]oxazine-6-carboxylic acid [trans-4-(6-methoxy-3,4-dihydro-2H-1-oxa-4,5,9-triaza-phenanthren-3-yl)-cyclohexyl]-amide]
COc1ccc2ncc3c(c2n1)N(C)C(c1ccc(NC(=O)c2ccc4c(c2)NC(=O)CS4)cn1)CO3 (stereo not drawn) [Example 27, 3-oxo-3,4-dihydro-2H-benzo[1,4]thiazine-6-carboxylic acid [6-(6-methoxy-4-methyl-3,4-dihydro-2H-1-oxa-4,5,9-triaza-phenanthren-3-yl)-pyridin-3-yl]-amide]
COc1ccc2ncc3c(c2c1)CC(n1cc(NC(=O)c2ccc4c(c2)NC(=O)CS4)cn1)CO3 (stereo not drawn) [Example 4, 3-oxo-3,4-dihydro-2H-benzo[1,4]thiazine-6-carboxylic acid [1-(6-methoxy-3,4-dihydro-2H-1-oxa-9-aza-phenanthrene-3-yl)-1H-pyrazol-4-yl]-amide]
